From patent US20030228308A1, “Isolated peptides which bind to HLA-Cw6 molecules and uses thereof” (priority 2002, published 2003) come the findings set out here.

One test relates to autologous EBV-B cells. The test can be described thus: 51Cr release lysis of peptide-incubated autologous EBV-B cells by CTL clone. The test is classed as cell-based, human. The conditions noted are these: effector:target 10:1, chromium release after 4 hours; for lysis (chromium release): 1 μg/ml of peptide, 15 minutes. Here is the method: A set of 16 amino acid long, MAGE-1 derived peptides were prepared, using standard solid phase methodologies.
The peptides, which overlapped by 12 residues and covered the entire MAGE-1 amino acid sequence, were incubated with autologous EBV-B cells that had been labelled with Na(^51Cr)O4. The cells were incubated for 15 minutes in the presence of 1 μg/ml of peptide, and then tested for lysis with the T cells, at effector:target ratios of 10:1. Chromium release was measured after 4 hours.
It corresponds to amino acids 230-238 of MAGE-1. The shorter peptide was tested, in the same manner as the longer ones.

The next test relates to EBV-B cells. Kind of test: TNF production by CTL co-cultured with fixed EBV-B cells pulsed with the shorter peptide. The class given is cell-based, human. Conditions: PFA-fixed EBV-B cells pulsed with peptide; overnight co-culture with 5,000 CTLs; WEHI 164 clone 13 readout. On the procedure: A MAGE-1 expressing tumor cell line, MZ2-MEL.43 was obtained from a patient who tested positive for HLA-Cw6 expression. These cells either were, or were not contacted with gamma interferon (100 U/ml), 48 hours before lysis studies. EBV-B cells were also used. These cells naturally produce TNF. They were fixed with PFA (1% in PBS) for 10 minutes at room temperature, washed twice with Hank's medium, and either pulsed or not with the shorter peptide.
Stimulator cells (2×10^4) were distributed in flat bottom microwells, and cocultured with 5,000 CTLs, in a total volume of 150 μl of complete IMDM, supplemented with 25 U/ml of IL-2.
TNF production was measured, following overnight co-culture, by testing for toxicity of supernatant on TNF sensitive, WEHI 164 clone 13 cells.

Turning to “HSAYGEPRKLLTQDLV (H. sapiens) [SEQ ID NO:2, amino acids 229-244 of MAGE-1]”, the “lysis (chromium release)” value in the test on autologous EBV-B cells is recorded as “positive”. Take “DGREHSAYGEPRKLLT (H. sapiens) [SEQ ID NO:1, amino acids 225-240 of MAGE-1]”: the “lysis (chromium release)” value in the test on autologous EBV-B cells was “positive”.

Consider SAYGEPRKL, for which the “TNF production by CTL” value in the test on EBV-B cells is recorded as “did stimulate TNF production”. Moreover, in the test with autologous EBV-B cells (read-out: peptide concentration giving half maximal lysis), the EC50 was approximately 6 nM.
